Stabilty, deltaTm and PT data for five compounds are collected here from ChEMBL document CHEMBL4765467, “Improving Thermodynamic Stability and Anticoagulant Activity of a Thrombin Binding Aptamer by Incorporation of 8-trifluoromethyl-2'-deoxyguanosine” (J Med Chem, 2021).

The nature of series [1]: Stability in 50% human plasma assessed as compound degradation at 50 uM measured within 3 hrs by PAGE analysis. The series is classed as ADME, cell-free.
Series [2] in a line: Thermodynamic stability assessed as change in melting temperature by CD spectroscopy relative to TBA. The series is classed as physicochemical.
Another series deals with Plasma. Briefly: Anticoagulant activity in human plasma assessed prothrombin time at 0.25 to 1 uM. The series is classed as functional. As to conditions: dose 0.25-1 µM.

Take `Cc1cn([C@H]2C[C@H](OP(=O)(O)OC[C@H]3O[C@@H](n4cnc5c(=O)[nH]c(N)nc54)C[C@@H]3OP(=O)(O)OC[C@H]3O[C@@H](n4cnc5c(=O)[nH]c(N)nc54)C[C@@H]3O)[C@@H](COP(=O)(O)O[C@H]3C[C@H](n4cc(C)c(=O)[nH]c4=O)O[C@@H]3COP(=O)(O)O[C@H]3C[C@H](n4cnc5c(=O)[nH]c(N)nc54)O[C@@H]3COP(=O)(O)O[C@H]3C[C@H](n4cnc5c(=O)[nH]c(N)nc54)O[C@@H]3COP(=O)(O)O[C@H]3C[C@H](n4cc(C)c(=O)[nH]c4=O)O[C@@H]3COP(=O)(O)O[C@H]3C[C@H](n4cnc5c(=O)[nH]c(N)nc54)O[C@@H]3COP(=O)(O)O[C@H]3C[C@H](n4cc(C)c(=O)[nH]c4=O)O[C@@H]3COP(=O)(O)O[C@H]3C[C@H](n4cnc5c(=O)[nH]c(N)nc54)O[C@@H]3COP(=O)(O)O[C@H]3C[C@H](n4c(C(F)(F)F)nc5c(=O)[nH]c(N)nc54)O[C@@H]3COP(=O)(O)O[C@H]3C[C@H](n4cc(C)c(=O)[nH]c4=O)O[C@@H]3COP(=O)(O)O[C@H]3C[C@H](n4cc(C)c(=O)[nH]c4=O)O[C@@H]3COP(=O)(O)O[C@H]3C[C@H](n4cnc5c(=O)[nH]c(N)nc54)O[C@@H]3COP(=O)(O)O[C@H]3C[C@H](n4cnc5c(=O)[nH]c(N)nc54)O[C@@H]3COP(=O)(O)O)O2)c(=O)[nH]c1=O`: the Stabilty entry in series [1] is “Unstable”. For the same compound, in series [2], the deltaTm was 8.1 °C. Moreover, in the series on Plasma, the PT is recorded as 26 s.
The corresponding values for `Cc1cn([C@H]2C[C@H](OP(=O)(O)OC[C@H]3O[C@@H](n4cnc5c(=O)[nH]c(N)nc54)C[C@@H]3OP(=O)(O)OC[C@H]3O[C@@H](n4cnc5c(=O)[nH]c(N)nc54)C[C@@H]3OP(=O)(O)OC[C@H]3O[C@@H](n4cc(C)c(=O)[nH]c4=O)C[C@@H]3OP(=O)(O)OC[C@H]3O[C@@H](n4cnc5c(=O)[nH]c(N)nc54)C[C@@H]3OP(=O)(O)OC[C@H]3O[C@@H](n4cc(C)c(=O)[nH]c4=O)C[C@@H]3OP(=O)(O)OC[C@H]3O[C@@H](n4c(C(F)(F)F)nc5c(=O)[nH]c(N)nc54)C[C@@H]3OP(=O)(O)OC[C@H]3O[C@@H](n4cnc5c(=O)[nH]c(N)nc54)C[C@@H]3OP(=O)(O)OC[C@H]3O[C@@H](n4cc(C)c(=O)[nH]c4=O)C[C@@H]3OP(=O)(O)OC[C@H]3O[C@@H](n4cc(C)c(=O)[nH]c4=O)C[C@@H]3OP(=O)(O)OC[C@H]3O[C@@H](n4cnc5c(=O)[nH]c(N)nc54)C[C@@H]3OP(=O)(O)OC[C@H]3O[C@@H](n4cnc5c(=O)[nH]c(N)nc54)C[C@@H]3O)[C@@H](COP(=O)(O)O[C@H]3C[C@H](n4cc(C)c(=O)[nH]c4=O)O[C@@H]3COP(=O)(O)O[C@H]3C[C@H](n4cnc5c(=O)[nH]c(N)nc54)O[C@@H]3COP(=O)(O)O[C@H]3C[C@H](n4cnc5c(=O)[nH]c(N)nc54)O[C@@H]3COP(=O)(O)O)O2)c(=O)[nH]c1=O` are “Unstable”, 7.6 °C and 21.9 s.
`Cc1cn([C@H]2C[C@H](OP(=O)(O)OC[C@H]3O[C@@H](n4cnc5c(=O)[nH]c(N)nc54)C[C@@H]3OP(=O)(O)OC[C@H]3O[C@@H](n4cnc5c(=O)[nH]c(N)nc54)C[C@@H]3OP(=O)(O)OC[C@H]3O[C@@H](n4cc(C)c(=O)[nH]c4=O)C[C@@H]3OP(=O)(O)OC[C@H]3O[C@@H](n4c(C(F)(F)F)nc5c(=O)[nH]c(N)nc54)C[C@@H]3OP(=O)(O)OC[C@H]3O[C@@H](n4cc(C)c(=O)[nH]c4=O)C[C@@H]3OP(=O)(O)OC[C@H]3O[C@@H](n4cnc5c(=O)[nH]c(N)nc54)C[C@@H]3OP(=O)(O)OC[C@H]3O[C@@H](n4cnc5c(=O)[nH]c(N)nc54)C[C@@H]3OP(=O)(O)OC[C@H]3O[C@@H](n4cc(C)c(=O)[nH]c4=O)C[C@@H]3OP(=O)(O)OC[C@H]3O[C@@H](n4cc(C)c(=O)[nH]c4=O)C[C@@H]3OP(=O)(O)OC[C@H]3O[C@@H](n4cnc5c(=O)[nH]c(N)nc54)C[C@@H]3OP(=O)(O)OC[C@H]3O[C@@H](n4cnc5c(=O)[nH]c(N)nc54)C[C@@H]3O)[C@@H](COP(=O)(O)O[C@H]3C[C@H](n4cc(C)c(=O)[nH]c4=O)O[C@@H]3COP(=O)(O)O[C@H]3C[C@H](n4cnc5c(=O)[nH]c(N)nc54)O[C@@H]3COP(=O)(O)O[C@H]3C[C@H](n4cnc5c(=O)[nH]c(N)nc54)O[C@@H]3COP(=O)(O)O)O2)c(=O)[nH]c1=O`: the Stabilty entry in series [1] is listed as “Unstable”. Further, the deltaTm in series [2] was -3.1 °C. In the series with Plasma, this compound gave a PT of 19.1 s.
In the same order, the values of `Cc1cn([C@H]2C[C@H](OP(=O)(O)OC[C@H]3O[C@@H](n4cnc5c(=O)[nH]c(N)nc54)C[C@@H]3OP(=O)(O)OC[C@H]3O[C@@H](n4cnc5c(=O)[nH]c(N)nc54)C[C@@H]3OP(=O)(O)OC[C@H]3O[C@@H](n4cc(C)c(=O)[nH]c4=O)C[C@@H]3OP(=O)(O)OC[C@H]3O[C@@H](n4cnc5c(=O)[nH]c(N)nc54)C[C@@H]3OP(=O)(O)OC[C@H]3O[C@@H](n4cc(C)c(=O)[nH]c4=O)C[C@@H]3OP(=O)(O)OC[C@H]3O[C@@H](n4cnc5c(=O)[nH]c(N)nc54)C[C@@H]3OP(=O)(O)OC[C@H]3O[C@@H](n4cnc5c(=O)[nH]c(N)nc54)C[C@@H]3OP(=O)(O)OC[C@H]3O[C@@H](n4cc(C)c(=O)[nH]c4=O)C[C@@H]3OP(=O)(O)OC[C@H]3O[C@@H](n4cc(C)c(=O)[nH]c4=O)C[C@@H]3OP(=O)(O)OC[C@H]3O[C@@H](n4cnc5c(=O)[nH]c(N)nc54)C[C@@H]3OP(=O)(O)OC[C@H]3O[C@@H](n4cnc5c(=O)[nH]c(N)nc54)C[C@@H]3O)[C@@H](COP(=O)(O)O[C@H]3C[C@H](n4cc(C)c(=O)[nH]c4=O)O[C@@H]3COP(=O)(O)O[C@H]3C[C@H](n4c(C(F)(F)F)nc5c(=O)[nH]c(N)nc54)O[C@@H]3COP(=O)(O)O[C@H]3C[C@H](n4cnc5c(=O)[nH]c(N)nc54)O[C@@H]3COP(=O)(O)O)O2)c(=O)[nH]c1=O` are “Unstable”, -17.3 °C and 9.9 s.
In the same order, the values of `Cc1cn([C@H]2C[C@H](OP(=O)(O)OC[C@H]3O[C@@H](n4cnc5c(=O)[nH]c(N)nc54)C[C@@H]3OP(=O)(O)OC[C@H]3O[C@@H](n4cnc5c(=O)[nH]c(N)nc54)C[C@@H]3OP(=O)(O)OC[C@H]3O[C@@H](n4cc(C)c(=O)[nH]c4=O)C[C@@H]3OP(=O)(O)OC[C@H]3O[C@@H](n4cnc5c(=O)[nH]c(N)nc54)C[C@@H]3OP(=O)(O)OC[C@H]3O[C@@H](n4cc(C)c(=O)[nH]c4=O)C[C@@H]3OP(=O)(O)OC[C@H]3O[C@@H](n4cnc5c(=O)[nH]c(N)nc54)C[C@@H]3OP(=O)(O)OC[C@H]3O[C@@H](n4cnc5c(=O)[nH]c(N)nc54)C[C@@H]3OP(=O)(O)OC[C@H]3O[C@@H](n4cc(C)c(=O)[nH]c4=O)C[C@@H]3OP(=O)(O)OC[C@H]3O[C@@H](n4cc(C)c(=O)[nH]c4=O)C[C@@H]3OP(=O)(O)OC[C@H]3O[C@@H](n4cnc5c(=O)[nH]c(N)nc54)C[C@@H]3OP(=O)(O)OC[C@H]3O[C@@H](n4cnc5c(=O)[nH]c(N)nc54)C[C@@H]3O)[C@@H](COP(=O)(O)O[C@H]3C[C@H](n4cc(C)c(=O)[nH]c4=O)O[C@@H]3COP(=O)(O)O[C@H]3C[C@H](n4cnc5c(=O)[nH]c(N)nc54)O[C@@H]3COP(=O)(O)O[C@H]3C[C@H](n4c(C(F)(F)F)nc5c(=O)[nH]c(N)nc54)O[C@@H]3COP(=O)(O)O)O2)c(=O)[nH]c1=O` are “Unstable”, 5.7 °C and 18.3 s.
